Literature values, collected in publication PMC1403760 (BMC Pharmacology, 2006).

System: HEK cells
Set-up: method as in PMID 12238779
Conditions: in these (HEK) cells; read-out: EC50 of forskolin

C=C[C@@]1(C)CC(=O)[C@]2(O)[C@@]3(C)[C@@H](O)CCC(C)(C)[C@@H]3[C@H](O)[C@H](OC(C)=O)[C@@]2(C)O1 [forskolin]
EC50: 10 µM
